Experimental findings from PubChem BioAssay (NCI) are described below.

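48-hour exposure; five concentrations; linearly interpolated endpoints. TGI marks complete inhibition of growth.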

Holding throughout (assay): DTP human tumour cell line panel, 48 h
For assay [1], the system named is A498 renal.
Assay [2] has as its system HCT-116 colon.
Assay [3] deals with KM12 colon.
Assay [4] deals with MALME-3M melanoma.
The test system of assay [5] is MCF7 breast.
The subject of assay [6] is NCI-H23 lung.
The test system of assay [7] is SF-295 CNS.
The test system of assay [8] is SW-620 colon.
Assay [9] deals with SNB-19 CNS.
In assay [10] the test system is SNB-75 CNS.

What is called TGI is the concentration at which net growth stops. On to `COC1/C=C/C(C)C(C(C)C(OC)C(C)CCC(=O)C(C)C(C/C=C/N(C)C=O)OC)OC(=O)/C=C/C=C(\C)CC(OC)C(OC)C2=CC(=O)O[C@@H](C(C)C(OC)CC(OC)/C=C/C(C)C(O)C1)[C@H]2O` (some centres undefined), for which the TGI in [1] was determined as 0.233 µM; in [2] it was 0.207 µM; in [3] it was 3.02 µM; in assay [4] it was 0.493 µM; in assay [5], 0.977 µM; in assay [6], 0.373 µM. Moreover, the TGI stood at 0.273 µM in assay [7] and 0.343 µM in assay [8].

As for `COc1cc2c(cc1Cl)n([O-])c(C#N)c(N1CCN(c3ccc([N+](=O)[O-])cc3)CC1)[n+]2=O`, the TGI was greater than 100 µM in assay [2]; greater than 100 µM in [3]; 99.6 µM in assay [4]; greater than 100 µM in assay [5]; 91.3 µM in assay [6]; greater than 100 µM in [7]. Besides, the TGI in [9] was greater than 100 µM; in assay [10], greater than 70.6 µM; in assay [8] it was greater than 100 µM.

With `CN1CCCCC(C(O)(c2ccccc2)c2ccccc2)C1=O` (centres undefined), the TGI in assay [1] was greater than 100 µM; in assay [2], 56.9 µM; in assay [3], greater than 100 µM; in [4] it was greater than 100 µM; in assay [6], greater than 100 µM; in assay [7], greater than 100 µM. Further, the TGI in assay [9] was greater than 100 µM; in assay [10], greater than 100 µM; in assay [8] it was 25.9 µM.

For the molecule `O=C(CCCn1ccnc1[N+](=O)[O-])NCCn1ccnc1[N+](=O)[O-]`, the TGI in assay [2], in [3], in assay [4], in [5], in [6] and in assay [7] was greater than 100 µM each time. Also, the TGI in [9], in assay [10] and in assay [8] was greater than 100 µM in each case.

For the molecule `Cc1cc([N+](=O)[O-])ccc1N=NC(=O)NNc1ccc([N+](=O)[O-])cc1C`, the TGI in assay [1] came to 27.2 µM; in assay [2], 28.2 µM; in [4], 37 µM; in assay [5], 20.5 µM; in [6], 41.8 µM; in assay [9], 37.8 µM. The TGI was determined as 34.7 µM in [10] and 33.7 µM in assay [8].

Consider `COc1cc(C2S/C(=C/c3ccccc3)C(=O)N2c2cccc([N+](=O)[O-])c2)cc(OC)c1OC` (centres undefined), for which the TGI in assay [1], in assay [2], in assay [3], in assay [4], in assay [5] and in [6] was greater than 100 µM each time. Further, the TGI in assay [7] and in assay [9] was greater than 100 µM in each case.

As for `CCOC(=O)N(C)C1(c2ccccc2)CCN(CCCC(=O)c2ccc(F)cc2)CC1`, the TGI in assay [1] is greater than 100 µM; in assay [2], greater than 100 µM; in [3], 81.1 µM; in assay [4], 30 µM; in [5], 85.2 µM; in assay [6], greater than 100 µM. The values for the TGI in assay [7], in assay [9] and in assay [8] were greater than 100 µM, 0.835 µM and 9.3 µM, respectively.

Take `NC(=O)CS(=O)CC(N)C(=O)O` (centres undefined): the TGI in [1], in [2], in assay [3], in assay [4], in assay [6] and in assay [7] was greater than 100 µM each time. Further, the TGI in [9], in assay [10] and in [8] was greater than 100 µM each time.

On to `CN1CC2CC(C1)c1cccc(=O)n1C2` (centres undefined), for which the TGI in assay [2], in [3], in assay [4], in [5], in assay [6] and in assay [7] was greater than 100 µM in each case. Further, the TGI in [9] and in assay [10] was greater than 100 µM throughout.

On to `CCC(C)C1(O)OC2CC3(C)OC(=CC3=O)/C(C)=C\C3OC(=O)C1(C)C32` (centres undefined), for which the TGI came out at 81.9 µM in assay [1]; 47.2 µM in assay [2]; 24.7 µM in assay [3]; 28.4 µM in [5]; 24.7 µM in assay [6]; 60.9 µM in [7]. The TGI was 77.5 µM in assay [9] and greater than 100 µM in assay [10].

Take `CC(C)C1=CC23CCC4C(C)(C(=O)O)CCCC4(C)C2CC1C(C(=O)O)C3C(=O)O` (centres undefined): the TGI in [1], in [2], in assay [3], in assay [4], in assay [6] and in assay [7] was greater than 100 µM in each case. Besides, the TGI in [9], in assay [10] and in assay [8] was greater than 100 µM throughout.

Turning to `O=C(C#Cc1cn(C2CC(O)C(CO)O2)c(=O)[nH]c1=O)c1ccccc1` (centres undefined), the TGI in assay [2] is greater than 100 µM; in assay [3], greater than 100 µM; in assay [4], 24.8 µM; in [5], greater than 100 µM; in [6], greater than 100 µM; in [7], greater than 100 µM. The TGI is greater than 100 µM in assay [9], greater than 100 µM in [10] and 50.4 µM in assay [8].

`COc1ccc2c(c1)-c1oc3ccccc3c(=O)c1CO2`: the TGI in assay [2], in [3], in [4], in [5], in assay [6] and in assay [7] was greater than 100 µM throughout. The figures for the TGI in assay [10] and in assay [8] were 73 µM and greater than 100 µM, respectively.

Take `NC(=O)NCCCC(NC(=O)OCCCCCn1ccc(=O)[nH]c1=O)C(=O)O` (centres undefined): the total growth inhibition concentration (TGI) in assay [2], in assay [3], in assay [5], in assay [6], in assay [7] and in assay [9] was greater than 100 µM throughout. Further, the TGI in [10] and in [8] was greater than 100 µM throughout.

For the molecule `COC(=O)c1cccc(C(=O)OC)c1`, the concentration for total growth inhibition (TGI) in assay [1], in assay [2], in assay [3], in assay [4], in assay [6] and in assay [7] was greater than 100 µM in each case. The TGI in assay [9], in assay [10] and in assay [8] was greater than 100 µM each time.

As to `O=C(O)/C=C/C(=O)O`, the TGI in assay [2], in [3], in assay [4], in [5], in [6] and in [7] was greater than 100 µM in each case. The TGI in assay [9], in assay [10] and in assay [8] was greater than 100 µM each time.

Take `Nc1nc(SCCC/C=C/I)nc2c1ncn2C1OC(CO)C(O)C1O` (centres undefined): the TGI in assay [1], in assay [2], in [3], in assay [4], in [6] and in assay [7] was greater than 202 µM throughout. For the same molecule, the TGI in assay [9], in assay [10] and in assay [8] was greater than 202 µM throughout.

`O=C(O)c1ccc(Nc2nc3ccccc3nc2C(=O)O)cc1`: the TGI in assay [2], in assay [3], in assay [4], in assay [5], in assay [6] and in assay [7] was greater than 100 µM each time. Also, the TGI in assay [9] and in assay [10] was greater than 100 µM throughout.

In the case of `COc1ccc(C2c3cc4c(cc3OC(N3CCCCC3)C2C)OCO4)cc1` (centres undefined), the TGI in [2], in assay [3], in assay [5], in [6], in [7] and in [9] was greater than 100 µM in each case. Also, the TGI in assay [10] and in assay [8] was greater than 100 µM throughout.

As for `OCCO[P+]1(OCCO)n2c3ccc2C(c2ccccc2)=C2C=CC(=N2)C(c2ccccc2)=c2ccc(n21)=C(c1ccccc1)C1=NC(=C3c2ccccc2)C=C1`, the TGI was 1.49 µM in [1]; 0.203 µM in assay [2]; 0.21 µM in assay [3]; greater than 100 µM in assay [5]; 0.327 µM in [6]; 0.513 µM in assay [7]. Further, the TGI in assay [9] stood at 1.96 µM; in assay [10], 0.273 µM; in assay [8] it was 1.09 µM.

Consider `O=C(c1ccccc1)N1C(=S)N(c2ccc([N+](=O)[O-])cc2)C(=Nc2ccccc2)C1=Nc1ccccc1`, for which the TGI in assay [3], in [4], in [5], in [6], in assay [7] and in assay [9] was greater than 100 µM in each case. The TGI in assay [10] and in assay [8] was greater than 100 µM throughout.

Regarding `O=C(O)C1SCCS1`, the TGI in [1], in [2], in assay [4], in assay [5], in [6] and in assay [7] was greater than 100 µM throughout. Besides, the TGI in assay [9], in assay [10] and in [8] was greater than 100 µM throughout.

In the case of `O=C(NN1C(=O)C=CC1=O)c1ccccc1Nc1ccccc1C(=O)NN1C(=O)C=CC1=O`, the total growth inhibition concentration (TGI) in assay [2], in [3], in assay [4], in assay [5], in [6] and in assay [7] was greater than 100 µM each time. Moreover, the total growth inhibition concentration (TGI) in assay [9], in assay [10] and in [8] was greater than 100 µM in each case.

With `C/C(N=Nc1nc2ccccc2o1)=C1/C=CC=CN1O`, the TGI in assay [1] is greater than 100 µM; in [2], greater than 100 µM; in assay [3] it was greater than 100 µM; in [4], 12.2 µM; in assay [5] it was 81.2 µM; in assay [6], greater than 100 µM. Also, the total growth inhibition concentration (TGI) in assay [7] is 10.1 µM; in [9], greater than 100 µM; in assay [8] it was greater than 100 µM.

As for `COc1ccc(/C=C2\CN(C)Cc3c2[nH]c(=O)c(C#N)c3-c2ccc(OC)cc2)cc1`, the TGI in assay [2], in [3], in assay [4], in assay [5], in assay [6] and in assay [7] was greater than 100 µM in each case. Also, the TGI in assay [9] and in assay [8] was greater than 100 µM throughout.

`COc1ccc(C2(C3c4cc(OC)c(OC)cc4CCN3C)SCCCS2)cc1O` (centres undefined): the TGI in [1], in assay [2], in assay [3], in assay [4], in [5] and in assay [6] was greater than 100 µM in each case. Moreover, the TGI in [7], in assay [9] and in assay [8] was greater than 100 µM each time.

For `O=C(OCc1ccccc1)N1c2cc([N+](=O)[O-])ccc2C(=O)N2CCC[C@H]2C1O` (some centres undefined), the TGI in [1], in assay [2], in assay [3], in assay [5], in [6] and in [7] was greater than 100 µM each time. Besides, the TGI in [9], in assay [10] and in assay [8] was greater than 100 µM in each case.

Regarding `O=C1/C(=C/c2ccco2)NC(=S)N1CN1CCOCC1`, the TGI in assay [1], in assay [2], in assay [3], in assay [5], in assay [6] and in assay [7] was greater than 100 µM in each case. The TGI in assay [9], in assay [10] and in [8] was greater than 100 µM each time.

Take `N#Cc1c(N2CCN(c3ccc([N+](=O)[O-])cc3)CC2)[n+](=O)c2ccc(Cl)cc2n1[O-]`: the TGI in [1] was 2.44 µM; in [3], 13.3 µM; in [4], 6.31 µM; in assay [5], greater than 33.3 µM; in assay [6], 3.96 µM; in assay [7], greater than 28.3 µM. In addition, the TGI in assay [9] was greater than 32.8 µM; in assay [10], greater than 27.9 µM; in assay [8] it was 1.81 µM.

In the case of `COc1nc2[nH]ccc2c(=O)n1C`, the TGI in assay [1], in [2], in assay [3], in assay [4], in assay [6] and in [7] was greater than 100 µM throughout. The TGI in [9], in assay [10] and in assay [8] was greater than 100 µM throughout.
